Laboratory results published in PMC8010095, “Discovery of novel antituberculosis agents among 3-phenyl-5-(1-phenyl-1H-[1,2,3]triazol-4-yl)-[1,2,4]oxadiazole derivatives targeting aminoacyl-tRNA synthetases” (Scientific Reports, 2021).
Like-named read-outs stand apart in the source and are kept apart here.

Key:
[1] = test system: Mycobacterium abscessus (ATCC 19,977); assay: microbe, parasite or virus in culture; assay type: cell-based; conditions: > 80% reduction in growth, screened at 20, 2 and 0.2 mg/L, 7H9 complete medium; for MIC: Mycobacteroides abscessus, ATCC19, read-out: Growth inhibition cutoff, M. abscessus 19,977
[2] = target: T1, M. tuberculosis methionyl-tRNA synthetase (MetRS) (Mycobacterium tuberculosis, UniProt P9WFU5); assay: biochemical; assay type: biochemical; conditions: for IC50: mean ± s.d. (n = 3)
T1 construct: made in house; host or cells: Escherichia coli

[3] = test system: Mycobacterium avium (ATCC 700,891 MAC 101); assay: microbe, parasite or virus in culture; assay type: cell-based; conditions: > 80% reduction in growth, screened at 20, 2 and 0.2 mg/L, 7H9 complete medium; for MIC: Mycobacterium avium, ATCC700, read-out: Growth inhibition cutoff, M. avium 700,891 (MAC 101)
M. tuberculosis H37Rv = assay: microbe, parasite or virus in culture; assay type: cell-based; conditions: > 80% reduction in growth, screened at 20, 2 and 0.2 mg/L, 7H9 complete medium; for MIC: Mycobacterium tuberculosis, H37RV, read-out: Growth inhibition cutoff, H37Rv
[4] = target: T2, M. tuberculosis leucyl-tRNA synthetase (LeuRS) (Mycobacterium tuberculosis, UniProt P9WFV1); assay: biochemical; assay type: biochemical; conditions: for IC50: mean ± s.d. (n = 3)
T2 construct: made in house; host or cells: Escherichia coli

[5] = recombinant enzyme, mean ± spread (n in brackets), negative = activation

T2 sequence (P9WFV1 whole entry): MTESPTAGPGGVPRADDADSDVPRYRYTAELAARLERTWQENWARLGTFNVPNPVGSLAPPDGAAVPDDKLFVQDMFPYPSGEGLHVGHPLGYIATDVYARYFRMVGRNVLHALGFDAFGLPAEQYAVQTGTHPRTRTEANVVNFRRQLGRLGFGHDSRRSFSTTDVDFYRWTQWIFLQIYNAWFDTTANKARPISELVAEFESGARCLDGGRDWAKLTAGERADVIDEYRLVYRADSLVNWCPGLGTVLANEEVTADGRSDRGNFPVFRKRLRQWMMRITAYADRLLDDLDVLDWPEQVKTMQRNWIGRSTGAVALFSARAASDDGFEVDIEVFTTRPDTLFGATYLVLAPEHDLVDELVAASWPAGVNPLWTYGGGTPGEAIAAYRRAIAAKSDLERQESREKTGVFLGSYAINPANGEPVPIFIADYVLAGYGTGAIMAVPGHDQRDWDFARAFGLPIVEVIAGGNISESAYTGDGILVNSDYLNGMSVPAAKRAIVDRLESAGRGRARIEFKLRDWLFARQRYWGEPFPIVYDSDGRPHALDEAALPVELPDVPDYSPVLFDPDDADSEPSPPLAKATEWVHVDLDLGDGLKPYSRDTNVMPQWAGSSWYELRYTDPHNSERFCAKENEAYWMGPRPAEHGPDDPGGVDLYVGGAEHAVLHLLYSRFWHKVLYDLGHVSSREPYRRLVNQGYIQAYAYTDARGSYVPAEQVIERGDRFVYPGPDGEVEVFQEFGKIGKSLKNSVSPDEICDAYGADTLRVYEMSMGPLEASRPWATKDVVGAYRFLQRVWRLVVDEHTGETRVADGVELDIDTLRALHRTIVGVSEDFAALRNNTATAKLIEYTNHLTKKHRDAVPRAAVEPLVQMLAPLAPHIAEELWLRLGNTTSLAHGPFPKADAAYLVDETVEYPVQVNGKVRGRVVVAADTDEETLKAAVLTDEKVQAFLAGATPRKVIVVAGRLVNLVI
T1 sequence (P9WFU5 whole entry): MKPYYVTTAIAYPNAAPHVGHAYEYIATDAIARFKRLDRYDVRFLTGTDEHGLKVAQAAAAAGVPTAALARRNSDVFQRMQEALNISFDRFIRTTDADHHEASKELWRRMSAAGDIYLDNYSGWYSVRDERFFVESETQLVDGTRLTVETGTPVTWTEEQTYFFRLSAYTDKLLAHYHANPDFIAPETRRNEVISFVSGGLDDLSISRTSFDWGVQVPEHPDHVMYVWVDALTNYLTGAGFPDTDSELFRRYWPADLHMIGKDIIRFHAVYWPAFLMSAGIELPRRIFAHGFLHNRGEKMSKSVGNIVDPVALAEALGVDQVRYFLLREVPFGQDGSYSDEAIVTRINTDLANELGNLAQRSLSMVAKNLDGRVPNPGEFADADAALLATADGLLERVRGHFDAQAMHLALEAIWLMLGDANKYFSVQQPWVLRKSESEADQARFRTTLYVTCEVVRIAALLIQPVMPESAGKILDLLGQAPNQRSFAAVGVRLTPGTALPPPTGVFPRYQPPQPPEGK

SMILES	Growth inhibition cutoff, M. abscessus 19,977 [1] [mg/L]	MetRS inhibition activity, % [2, 5]	Growth inhibition cutoff, M. avium 700,891 (MAC 101) [3] [mg/L]	Growth inhibition cutoff, H37Rv (M. tuberculosis H37Rv) [mg/L]	LeuRS inhibition activity, % [4, 5]	other results
COc1ccc(-n2nnc(-c3nc(-c4ccc(F)cc4)no3)c2N)cc1 [Compound 13]						MIC [1]: > 20 µg/mL; MetRS inhibition activity, % [2]: 36 ± 5 (2) %; IC50 [2]: 122 ± 26 µM; MIC [3]: > 20 µg/mL; MIC (M. tuberculosis H37Rv): > 20 µg/mL; LeuRS inhibition activity, % [4]: 79 ± 7 (2) %; IC50 [4]: 263.5 ± 0.7 µM
Nc1c(-c2nc(-c3ccc(F)cc3)no2)nnn1-c1ccccc1F [Compound 23]	> 20	7 ± 13 (2) %	> 20	> 20	5 ± 7 (2) %	
Nc1c(-c2nc(-c3ccccc3)no2)nnn1-c1ccc(C(F)(F)F)c(Cl)c1 [Compound 2]						MIC [1]: > 20 µg/mL; MetRS inhibition activity, % [2]: 71 ± 29 (2) %; IC50 [2]: 115 ± 3 µM; MIC [3]: > 20 µg/mL; MIC (M. tuberculosis H37Rv): > 20 µg/mL; LeuRS inhibition activity, % [4]: 32 ± 19 (3) %; IC50 [4]: 76.5 ± 66 µM
Cc1c(-c2nc(-c3ccccc3F)no2)nnn1-c1cc(F)ccc1F [Compound 6]	> 20		> 20	> 20		
Cc1c(-c2nc(-c3ccccc3F)no2)nnn1-c1ccc(Br)cc1 [Compound 5]	> 20		> 20	> 20	17 ± 10 (2) %	
Cc1cccc(-n2nnc(-c3nc(-c4ccc(F)cc4)no3)c2N)c1 [Compound 18]	> 20	26 ± 20 (2) %	> 20	> 20	13 ± 11 (2) %	
Nc1c(-c2nc(-c3ccc(Br)cc3)no2)nnn1-c1ccc(F)cc1 [Compound 32]	> 20	46 ± 32 (2) %	> 20	> 20		
COc1ccc(-c2noc(-c3nnn(-c4cc(Cl)ccc4OC)c3N)n2)cc1 [Compound 37]	> 20		> 20	> 20		
Nc1c(-c2nc(-c3ccc(F)cc3)no2)nnn1-c1cccc(Cl)c1 [Compound 16]	> 20	47 ± 19 (2) %	> 20	> 20		
Nc1c(-c2nc(-c3ccc(Br)cc3)no2)nnn1-c1cccc(F)c1 [Compound 33]	> 20	55 ± 4 (2) %	> 20	> 20		
CCc1ccc(-n2nnc(-c3nc(-c4ccc(F)cc4)no3)c2N)cc1 [Compound 14]	> 20	41 ± 10 (3) %	> 20	> 20	31 ± 7 (2) %	
CCOc1ccc(-c2noc(-c3nnn(-c4ccc(F)c(Cl)c4)c3N)n2)cc1 [Compound 41]	> 20	59 ± 22 (2) %	> 20	> 20		
CCOc1ccccc1-n1nnc(-c2nc(-c3ccc(Br)cc3)no2)c1N [Compound 36]	> 20	25 ± 5 (2) %	> 20	> 20		
Nc1c(-c2nc(-c3ccc(Cl)cc3)no2)nnn1-c1ccc(Br)cc1F [Compound 31]	> 20	70 ± 19 (2) %	> 20	> 20	15 ± 11 (2) %	
Nc1c(-c2nc(-c3ccc(F)cc3)no2)nnn1-c1cccc(F)c1 [Compound 15]	> 20		> 20	> 20		
Nc1c(-c2nc(-c3ccc(F)cc3)no2)nnn1-c1ccccc1 [Compound 9]	> 20	30 ± 2 (2) %	> 20	> 20	1 ± 8 (2) %	
Nc1c(-c2nc(-c3ccc(F)cc3)no2)nnn1-c1ccc(F)cc1F [Compound 22]	> 20	59 ± 9 (2) %	> 20	> 20		

SMILES	Growth inhibition cutoff, M. abscessus 19,977 [1] [mg/L]	MetRS inhibition activity, % [2, 5]	Growth inhibition cutoff, M. avium 700,891 (MAC 101) [3] [mg/L]	Growth inhibition cutoff, H37Rv (M. tuberculosis H37Rv) [mg/L]	LeuRS inhibition activity, % [4, 5]	other results
COc1ccc(-n2nnc(-c3nc(-c4ccc(F)cc4)no3)c2N)cc1OC [Compound 21]	> 20		> 20	> 20		
COc1ccccc1-n1nnc(-c2nc(-c3ccc(Br)cc3)no2)c1N [Compound 35]	> 20	61 ± 47 (3) %	> 20	> 20		
Nc1c(-c2nc(-c3ccc(F)cc3)no2)nnn1-c1ccc(Br)cc1 [Compound 11]	> 20		> 20	> 20		
Nc1c(-c2nc(-c3ccc(F)cc3)no2)nnn1-c1ccc(F)cc1 [Compound 12]	> 20	52 ± 6 (2) %	> 20	> 20	3 ± 7 (2) %	
COc1ccc(C)cc1-n1nnc(-c2nc(-c3ccc(F)cc3)no2)c1N [Compound 28]	> 20	37 ± 3 (2) %	> 20	> 20		
CCOc1ccccc1-n1nnc(-c2nc(-c3ccc(F)cc3)no2)c1N [Compound 30]	> 20	19 ± 0.9 (2) %	> 20	> 20		
CCOc1ccc(-c2noc(-c3nnn(-c4ccccc4F)c3N)n2)cc1 [Compound 39]	> 20	35 ± 6 (2) %	> 20	> 20		
COc1ccccc1-n1nnc(-c2nc(-c3ccc(F)cc3)no2)c1N [Compound 26]	> 20		> 20	> 20		
Nc1c(-c2nc(-c3ccccc3)no2)nnn1-c1ccccc1F [Compound 1]	> 20		> 20	> 20		
Cc1c(-c2nc(-c3ccccc3Cl)no2)nnn1-c1cccc(F)c1 [Compound 7]	> 20		> 20	> 20	71 ± 5 (2) %	
COc1ccc(OC)c(-n2nnc(-c3nc(-c4ccc(F)cc4)no3)c2N)c1 [Compound 29]	> 20	14 ± 14 (2) %	> 20	> 20		
Nc1c(-c2nc(-c3ccc(F)cc3)no2)nnn1-c1ccc(Cl)cc1 [Compound 10]	> 20	23 ± 25 (3) %	> 20	> 20		
Cc1ccccc1-c1noc(-c2nnn(-c3ccc(Br)cc3)c2C)n1 [Compound 8]	> 20		> 20	> 20	18 ± 4 (2) %	
COc1ccc(-c2noc(-c3nnn(-c4ccc(Cl)cc4)c3C)n2)cc1OC [Compound 38]	> 20	25 ± 18 (2) %	> 20	> 20		
Cc1c(-c2nc(-c3ccccc3F)no2)nnn1-c1ccc(F)c(Cl)c1 [Compound 4]	> 20		> 20	> 20	11 ± 8 (3) %	
Nc1c(-c2nc(-c3ccc(F)cc3)no2)nnn1-c1cccc(C(F)(F)F)c1 [Compound 19]	> 20	53 ± 0.7 (2) %	> 20	> 20		
